Source: patent US11053204B2, “Pyrimidinyloxy benzene derivatives as herbicides” (FMC Corporation, priority 2015, dated 2021)

Columns and labels:
Format in all cases: in vivo
[1] = tested on: galium (catchweed bedstraw, Galium aparine); experiment: Test C preemergence, plant response rating
[2] = tested on: kochia (Kochia scoparia); experiment: Test C preemergence, plant response rating
[3] = tested on: barnyardgrass (Echinochloa crus-galli); experiment: Test C preemergence, plant response rating; conditions: Preemergence
[4] = tested on: johnsongrass (Sorghum halepense); experiment: Test C preemergence, plant response rating
[5] = tested on: field violet (Viola arvensis); experiment: Test C postemergence, plant response rating; conditions: for Field Violet plant response rating: scale 0 to 100 (0 no effect, 100 complete control)
Procedure, shortened: (§1)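 Preemergence: seeds sown in loam–sand blend or silt loam and sprayed with test chemicals in a non-phytotoxic surfactant-containing solvent. Postemergence: potted plants at 2–18 cm (1–4-leaf stage) sprayed with the same formulation. After 13–15 d in greenhouse, visual rating versus controls on 0 (no effect) to 100 (complete control) scale.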

[6] = tested on: wild mustard (Sinapis arvensis); experiment: Test C postemergence, plant response rating; conditions: for Mustard, Wild plant response rating: scale 0 to 100 (0 no effect, 100 complete control)
Procedure, shortened: as §1

[7] = tested on: surinam grass (Brachiaria decumbens); experiment: Test C postemergence, plant response rating
Procedure, shortened: as §1

[8] = tested on: nightshade (eastern black nightshade, Solanum ptycanthum); experiment: Test C postemergence, plant response rating; conditions: for Nightshade plant response rating: scale 0 to 100 (0 no effect, 100 complete control)
Procedure, shortened: as §1

[9] = tested on: pigweed, palmer (palmer pigweed, Amaranthus palmeri); experiment: Test C postemergence, plant response rating; conditions: for Pigweed, Palmer plant response rating: scale 0 to 100 (0 no effect, 100 complete control)
Procedure, shortened: as §1

[10] = tested on: speedwell (bird's-eye speedwell, Veronica persica); experiment: Test C postemergence, plant response rating; conditions: for Speedwell plant response rating: scale 0 to 100 (0 no effect, 100 complete control)
Procedure, shortened: as §1

[11] = tested on: buckwheat, wild (wild buckwheat, Polygonum convolvulus); experiment: Test C postemergence, plant response rating; conditions: for Buckwheat, Wild plant response rating: scale 0 to 100 (0 no effect, 100 complete control)
Procedure, shortened: as §1

[12] = tested on: windgrass (Apera spica-venti); experiment: Test C postemergence, plant response rating
Procedure, shortened: as §1

[13] = tested on: Canada thistle (Cirsium arvense); experiment: Test C postemergence, plant response rating; conditions: for Canada Thistle plant response rating: scale 0 to 100 (0 no effect, 100 complete control)
Procedure, shortened: as §1

[14] = tested on: field poppy (Papaver rhoeas); experiment: Test C postemergence, plant response rating; conditions: for Field Poppy plant response rating: scale 0 to 100 (0 no effect, 100 complete control)
Procedure, shortened: as §1

[15] = tested on: johnsongrass (Sorghum halepense); experiment: Test C postemergence, plant response rating; conditions: for Johnsongrass plant response rating: scale 0 to 100 (0 no effect, 100 complete control)
Procedure, shortened: as §1

[16] = tested on: geranium, cutleaf (cutleaf geranium, Geranium dissectum); experiment: Test C postemergence, plant response rating; conditions: for Geranium, Cutleaf plant response rating: scale 0 to 100 (0 no effect, 100 complete control)
Procedure, shortened: as §1

[17] = tested on: wild poinsettia (Euphorbia heterophylla); experiment: Test C postemergence, plant response rating; conditions: for Poinsettia, Wild plant response rating: scale 0 to 100 (0 no effect, 100 complete control)
Procedure, shortened: as §1

[18] = tested on: nightshade (eastern black nightshade, Solanum ptycanthum); experiment: Test C preemergence, plant response rating
[19] = 125 g ai/ha, scale 0 to 100 (0 no effect, 100 complete control)

N#Cc1cccc(Oc2ncc(Cl)cn2)c1COCCC(F)(F)F [Compound 80]
Plant response rating, Galium ([1]; 31 g ai/ha, scale 0 to 100): 5
Plant response rating, Galium ([1]; 62 g ai/ha, scale of 0 to 100): 75
Plant response rating, Galium ([1]; 125 g ai/ha, scale of 0 to 100): 98
Plant response rating, Kochia ([2]; 31 g ai/ha, scale 0 to 100): 95
Plant response rating, Kochia ([2]; 62 g ai/ha, scale 0 to 100): 100
Plant response rating, Kochia ([2]; 125 g ai/ha, scale of 0 to 100): 100
Plant response rating, Barnyardgrass ([3]; 62 g ai/ha, scale of 0 to 100): 70
Plant response rating, Barnyardgrass ([3]; 125 g ai/ha, scale of 0 to 100): 100
Plant response rating, Barnyardgrass ([3]; 16 g ai/ha, scale 0 to 100): 10
Plant response rating, Barnyardgrass ([3]; 31 g ai/ha, scale 0 to 100): 30
Plant response rating, Johnsongrass ([4]; 31 g ai/ha, scale 0 to 100): 30
Plant response rating, Johnsongrass ([4]; 62 g ai/ha, scale 0 to 100): 55
Plant response rating, Johnsongrass ([4]; 125 g ai/ha, scale of 0 to 100): 60
Plant response rating, Field Violet ([5]; 16 g ai/ha, scale of 0 to 100): 75
Plant response rating, Field Violet ([5]; 31 g ai/ha, scale 0 to 100): 85
Field Violet plant response rating ([5]; 62 g ai/ha): 90
Field Violet plant response rating ([5]; 125 g ai/ha): 95
Plant response rating, Mustard, Wild ([6]; 16 g ai/ha, scale of 0 to 100): 75
Plant response rating, Mustard, Wild ([6]; 31 g ai/ha, scale 0 to 100): 80
Mustard, Wild plant response rating ([6]; 62 g ai/ha): 80
Mustard, Wild plant response rating ([6]; 125 g ai/ha): 90
Plant response rating, Surinam Grass ([7]; 16 g ai/ha, scale of 0 to 100): 10
Plant response rating, Surinam Grass ([7]; 31 g ai/ha, scale 0 to 100): 10
Surinam Grass plant response rating [7, 19]: 25
Plant response rating, Nightshade ([8]; 16 g ai/ha, scale of 0 to 100): 60
Plant response rating, Nightshade ([8]; 31 g ai/ha, scale 0 to 100): 65
Nightshade plant response rating ([8]; 62 g ai/ha): 70
Nightshade plant response rating ([8]; 125 g ai/ha): 75
Plant response rating, Pigweed, Palmer ([9]; 16 g ai/ha, scale of 0 to 100): 30
Plant response rating, Pigweed, Palmer ([9]; 31 g ai/ha, scale 0 to 100): 35
Pigweed, Palmer plant response rating ([9]; 62 g ai/ha): 70
Pigweed, Palmer plant response rating ([9]; 125 g ai/ha): 60
Plant response rating, Speedwell ([10]; 16 g ai/ha, scale of 0 to 100): 90
Plant response rating, Speedwell ([10]; 31 g ai/ha, scale 0 to 100): 100
Speedwell plant response rating ([10]; 62 g ai/ha): 100
Speedwell plant response rating ([10]; 125 g ai/ha): 100
Plant response rating, Buckwheat, Wild ([11]; 16 g ai/ha, scale of 0 to 100): 70
Plant response rating, Buckwheat, Wild ([11]; 31 g ai/ha, scale 0 to 100): 70
Buckwheat, Wild plant response rating ([11]; 62 g ai/ha): 75
Buckwheat, Wild plant response rating ([11]; 125 g ai/ha): 95
Plant response rating, Windgrass ([12]; 16 g ai/ha, scale of 0 to 100): 0
Plant response rating, Windgrass ([12]; 31 g ai/ha, scale 0 to 100): 5
Windgrass plant response rating [12, 19]: 30
Plant response rating, Canada Thistle ([13]; 16 g ai/ha, scale of 0 to 100): 75
Plant response rating, Canada Thistle ([13]; 31 g ai/ha, scale 0 to 100): 75
Canada Thistle plant response rating ([13]; 62 g ai/ha): 75
Canada Thistle plant response rating ([13]; 125 g ai/ha): 85
Plant response rating, Field Poppy ([14]; 16 g ai/ha, scale of 0 to 100): 70
Plant response rating, Field Poppy ([14]; 31 g ai/ha, scale 0 to 100): 75
Field Poppy plant response rating ([14]; 62 g ai/ha): 85
Field Poppy plant response rating ([14]; 125 g ai/ha): 85
Plant response rating, Johnsongrass ([15]; 16 g ai/ha, scale of 0 to 100): 5
Plant response rating, Johnsongrass ([15]; 31 g ai/ha, scale 0 to 100): 5
Johnsongrass plant response rating ([15]; 62 g ai/ha): 5
Johnsongrass plant response rating ([15]; 125 g ai/ha): 5
Plant response rating, Geranium, Cutleaf ([16]; 16 g ai/ha, scale of 0 to 100): 30
Plant response rating, Geranium, Cutleaf ([16]; 31 g ai/ha, scale 0 to 100): 35
Geranium, Cutleaf plant response rating ([16]; 62 g ai/ha): 35
Geranium, Cutleaf plant response rating ([16]; 125 g ai/ha): 60
Plant response rating, Poinsettia, Wild ([17]; 16 g ai/ha, scale of 0 to 100): 65
Plant response rating, Poinsettia, Wild ([17]; 31 g ai/ha, scale 0 to 100): 65
Poinsettia, Wild plant response rating ([17]; 62 g ai/ha): 70
Poinsettia, Wild plant response rating ([17]; 125 g ai/ha): 75
Plant response rating, Nightshade ([18]; 31 g ai/ha, scale 0 to 100): 70
Plant response rating, Nightshade ([18]; 62 g ai/ha, scale 0 to 100): 85
Plant response rating, Nightshade ([18]; 125 g ai/ha, scale of 0 to 100): 90
